{"source": "patent US11633370B2", "about": "“Use of scavengers of reactive gamma-ketoaldehydes to extend cell lifespan and healthspan” (Vanderbilt University, priority 2016, dated 2023)", "key": {"[1]": {"system": "VC199 (SIR-2.1 deficient strain)", "assay": "F3-IsoP quantification by GC/MS, VC199", "format": "in vivo, C. elegans", "details": "any dose of SA tested, Day 15", "text": "One of the major stimuli for activation of sirtuins is oxidative stress. […] Indeed, the mitochondrial antioxidant manganese superoxide dismutase (MnSOD) has been identified as one of the major protein targets that is deacetylated by sirtuin isoforms, with deacetylation enhancing the enzymatic activity of MnSOD [60]. If SA indeed preserves SIR-2.1 enzymatic function in vivo, the present inventors hypothesized that SA treatment would dose-dependently decrease biomarkers of oxidant injury in a SIR-2.1-dependent manner. To quantify oxidant injury, the present inventors measured F3-isoprostanes (F3-IsoPs). […] To further characterize SA's ability to preserve SIR-2.1 function, the present inventors assessed acetylation of MnSOD at Lys 122.\nF3-Isoprostanes were quantified from SA-treated worms a gas-chromatography-negative ion chemical ionization-mass spectrometry (GC-NICI-MS) approach. […]\nSamples were spiked with 248 pg of deuterated internal standards, [^2H4]-15-F2t-IsoP, quantified and calibrated by the method of Milne et al. and acidified to pH<3 with HCl in preparation for further Separation Phase Extraction (SPE). […]\nEluates were dried under nitrogen and F3—IsoPs and resuspended in MeOH for separation by Thin Layer Chromatography (TLC). […] Deuterated F2-IsoP standard was measured at m/z 573. F3—IsoP was measured at m/z 567. […]"}, "VC199 [sir-2.1(ok434)]": {"system": "VC199 [sir-2.1(ok434)]", "assay": "Lipofuscin autofluorescence measurement, VC199", "format": "in vivo, C. elegans", "details": "increasing concentrations of SA, day 15; p=0.50", "method": "As with the N2 strain, the present inventors treated VC199 nematodes with increasing concentrations of SA and assessed the age-dependent accumulation of autofluorescent lipofuscin granules and decrease in pharyngeal pumping rate.\nSynchronized late L4/early young adult worms were plated on FUDR containing SA-OP50-seeded NGM plates and worms were maintained at 20° C. Every fifth day, 10-15 worms were mounted onto 2% agar pads and anesthetized with 3 mM levamisole in DMSO. Images were taken at 250-ms exposure under a DAPI filter using an epifluorescence microscope (Nikon Eclipse 80i) equipped with a Lambda LS Xenon lamp (Sutter Instrument Company) and Nikon Plan Fluor 20× dry and Nikon Plan Apo 60×1.3 oil objectives. The fluorescence was calculated using ImageJ software."}}, "data": [{"smiles": "NCc1ccccc1O", "note": "[SA, salicylamine]", "values": [{"measurement": "F3-IsoP levels", "setting": "[1]", "result": "did not significantly decrease"}, {"measurement": "accumulation of lipofuscin", "setting": "VC199 [sir-2.1(ok434)]", "result": "none of the doses of SA used were able to decrease the accumulation of lipofuscin"}]}]}
